In PubChem BioAssay AID2060501 (Molecular Pharmacology Branch, DTP, NCI, 2025) one finds viability, T/C data, which are given here for three molecules.
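Also: spheroids exposed to compounds for 7 days before readout; percent of vehicle DMSO control viability with 100% = untreated-like growth.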

The subject of one assay is 282377-053-R-J1-PDC complex spheroids, viability. As to the kind of experiment: Anticancer human tumor 282377-053-R-J1-PDC patient-derived colon adenocarcinoma cell line growth inhibition [GQUAD]. The settings on record: second compound 3.16 µM; first compound 0.1 µM; hits give low values. The source says:
DNA G-quadruplex Stabilizer Agents in Combinations in Complex Spheroids
A high-throughput screen of multi-cell type tumor spheroids was designed to identify active combinations of DNA G-quadruplex stabilizer agents and targeted small molecules. Complex spheroids include a stromal component modeled by human endothelial cells (HUVEC) and fibroblasts modeled by human mesenchymal stem cells (MSCs). The concentration ranges selected for each drug and investigational agent were based upon clinically achievable concentrations if the clinical Cmax of the agent was known.
Compounds. The drugs and investigational agents: pidnarulex (CX-5461; NSC782164), APTO-253 (NSC789042), BRACO-19 (NSC847499), peposertib (NSC802822), ceralasertib (NSC780249), elimusertib (NSC800525), camonsertib (NSC841442), AZD-1390 (NSC803789), olaparib (NSC753686), talazoparib (NSC767125), ART-558 (NSC835418), sotorasib (NSC818433), MRTX-1133 (NSC836407), SN-38 (NSC673596), topotecan (NSC609699), etoposide (NSC141540), doxorubicin (NSC123127), gemcitabine (NSC613327), 5-fluorouracil (NSC19893), paclitaxel (NSC125973), vemurafenib (NSC761431), panobinostat (NSC761190), R-306465 (JNJ-16241199; NSC773264), adavosertib (NSC754352), TP-3654 (NSC805149), carboplatin (NSC241240), KSQ-4279 (NSC840948), and staurosporine (NSC755774) were obtained from the National Cancer Institute (NCI) Developmental Therapeutics Program Chemical Repository (34). The FDA-approved anticancer drug set is available from the NCI Developmental Therapeutics Program. […] The stock solutions were prepared in dimethyl sulfoxide (DMSO, Sigma-Aldrich, St. Louis, MO, cat. D2650) at 800-fold the tested concentration and stored at -70 degrees C prior to their use. All drugs and investigational agents were tested over a range starting from a high concentration at or near the clinical Cmax and decreasing in half-log increments. If the clinical Cmax for an agent had not been determined, the highest concentration tested was 10 microM.
2.3 Cell Culture. All cells were maintained in an incubator at 37 degrees C and 5% CO2 with 95% humidity. The PDC lines were cultured according to standard operating procedures established by the NCI PDMR. All PDCs were thawed and cultured in Matrigel-coated flasks prepared with a working solution of 1X Ham's F-12 nutrient mix, without supplementation (Invitrogen, cat. 11765054), 100 U/mL penicillin-streptomycin (Invitrogen, cat. 15140122), and 2.5% Matrigel (Corning Inc., cat. 354248) for the first three passages. The 857933-349-R-J2-PDC line was cultured in 6C/Colon 1B media, which includes advanced DMEM/F-12 (Thermo Fisher Scientific, cat. 12634028), 10 mM HEPES (Thermo Fisher Scientific, cat. 15630080), 1X GlutaMAX supplement (Thermo Fisher Scientific, cat. 35050061), 0.1 mg/mL primocin (InvivoGen, cat. ant-pm-2), 10% defined fetal bovine serum, heat inactivated (HyClone Laboratories Inc., cat. SH30070.03HI), 50% L-WRN conditioned media (ATCC, cat. CRL-3276), 1.25 mM N-Acetyl-L-cysteine (Sigma-Aldrich, cat. A9165), 10 mM nicotinamide (Sigma-Aldrich, cat. N0636), 1X B-27 supplement (Thermo Fisher Scientific, cat. 17504044), 1X N-2 supplement (Thermo Fisher Scientific, cat. 17502048), 10 microM Y-27632 dihydrochloride (Tocris Bioscience, cat. 1254), and 50 ng/mL human EGF recombinant protein (Thermo Fisher Scientific, cat. PHG0311). The 485176-168-R4-J1-PDC line was cultured in Panc media, which includes all 6C/Colon 1B media components plus 100 ng/mL human FGF-10 (Thermo Fisher Scientific, cat. 100-26), 500 nM SB-431542 (Selleckchem, cat. S1067), and gastrin (Tocris, cat. 3006).
[…]
For the molecule `CC(C)n1c(=O)n(C)c2cnc3cc(F)c(-c4ccc(OCCCN5CCCCC5)nc4)cc3c21` + Cc1[nH]c2ccc(F)cc2c1-c1nc2c3cccnc3c3ncccc3c2[nH]1, the viability, T/C is 78.8%.
Turning to `O=C(c1cc(Cc2n[nH]c(=O)c3ccccc23)ccc1F)N1CCN(C(=O)C2CC2)CC1` + Cc1[nH]c2ccc(F)cc2c1-c1nc2c3cccnc3c3ncccc3c2[nH]1, the viability, T/C was 76.7%.

The same assay, now with this note: second compound 3.16 µM; first compound 0.316 µM; hits give low values.
For `CCCS(=O)(=O)Nc1ccc(F)c(C(=O)c2c[nH]c3ncc(-c4ccc(Cl)cc4)cc23)c1F` + CN(C)c1ccc(Nc2c3ccc(NC(=O)CCN4CCCC4)cc3nc3cc(NC(=O)CCN4CCCC4)ccc23)cc1, the viability, T/C is 68.7%.
Regarding `CC(C)n1c(=O)n(C)c2cnc3cc(F)c(-c4ccc(OCCCN5CCCCC5)nc4)cc3c21` + Cc1[nH]c2ccc(F)cc2c1-c1nc2c3cccnc3c3ncccc3c2[nH]1, the viability, T/C was 86.7%.
Same read-out and setting: the figure for `O=C(c1cc(Cc2n[nH]c(=O)c3ccccc23)ccc1F)N1CCN(C(=O)C2CC2)CC1` + Cc1[nH]c2ccc(F)cc2c1-c1nc2c3cccnc3c3ncccc3c2[nH]1 is 93%.

Still in this assay, the particulars now being: second compound 3.16 µM; first compound 1 µM; hits give low values.
For `CCCS(=O)(=O)Nc1ccc(F)c(C(=O)c2c[nH]c3ncc(-c4ccc(Cl)cc4)cc23)c1F` + CN(C)c1ccc(Nc2c3ccc(NC(=O)CCN4CCCC4)cc3nc3cc(NC(=O)CCN4CCCC4)ccc23)cc1, the viability, T/C was 67.1%.
Same read-out and setting: with `CC(C)n1c(=O)n(C)c2cnc3cc(F)c(-c4ccc(OCCCN5CCCCC5)nc4)cc3c21` + Cc1[nH]c2ccc(F)cc2c1-c1nc2c3cccnc3c3ncccc3c2[nH]1 the figure was 66.3%; with `O=C(c1cc(Cc2n[nH]c(=O)c3ccccc23)ccc1F)N1CCN(C(=O)C2CC2)CC1` + Cc1[nH]c2ccc(F)cc2c1-c1nc2c3cccnc3c3ncccc3c2[nH]1, 79.1%.

The same assay, now with this note: second compound 3.16 µM; first compound 3.16 µM; hits give low values.
Take `CCCS(=O)(=O)Nc1ccc(F)c(C(=O)c2c[nH]c3ncc(-c4ccc(Cl)cc4)cc23)c1F` + CN(C)c1ccc(Nc2c3ccc(NC(=O)CCN4CCCC4)cc3nc3cc(NC(=O)CCN4CCCC4)ccc23)cc1: the viability, T/C is 50.6%.
In the case of `CC(C)n1c(=O)n(C)c2cnc3cc(F)c(-c4ccc(OCCCN5CCCCC5)nc4)cc3c21` + Cc1[nH]c2ccc(F)cc2c1-c1nc2c3cccnc3c3ncccc3c2[nH]1, the viability, T/C is 73.6%.
On to `O=C(c1cc(Cc2n[nH]c(=O)c3ccccc23)ccc1F)N1CCN(C(=O)C2CC2)CC1` + Cc1[nH]c2ccc(F)cc2c1-c1nc2c3cccnc3c3ncccc3c2[nH]1, for which the viability, T/C is 69.8%.

Staying with this assay, now noted: second compound 3.16 µM; first compound 10 µM; hits give low values.
Consider `CCCS(=O)(=O)Nc1ccc(F)c(C(=O)c2c[nH]c3ncc(-c4ccc(Cl)cc4)cc23)c1F` + CN(C)c1ccc(Nc2c3ccc(NC(=O)CCN4CCCC4)cc3nc3cc(NC(=O)CCN4CCCC4)ccc23)cc1, for which the viability, T/C is 21.6%.
On the same count and under the same terms, with `CC(C)n1c(=O)n(C)c2cnc3cc(F)c(-c4ccc(OCCCN5CCCCC5)nc4)cc3c21` + Cc1[nH]c2ccc(F)cc2c1-c1nc2c3cccnc3c3ncccc3c2[nH]1 the figure was 36.5%; with `O=C(c1cc(Cc2n[nH]c(=O)c3ccccc23)ccc1F)N1CCN(C(=O)C2CC2)CC1` + Cc1[nH]c2ccc(F)cc2c1-c1nc2c3cccnc3c3ncccc3c2[nH]1, 54.7%.

The same assay, now with this note: second compound 10 µM; first compound 0.0316 µM; hits give low values.
With `CCCS(=O)(=O)Nc1ccc(F)c(C(=O)c2c[nH]c3ncc(-c4ccc(Cl)cc4)cc23)c1F` + CN(C)c1ccc(Nc2c3ccc(NC(=O)CCN4CCCC4)cc3nc3cc(NC(=O)CCN4CCCC4)ccc23)cc1, the viability, T/C was 82.1%.
Take `CC(C)n1c(=O)n(C)c2cnc3cc(F)c(-c4ccc(OCCCN5CCCCC5)nc4)cc3c21` + Cc1[nH]c2ccc(F)cc2c1-c1nc2c3cccnc3c3ncccc3c2[nH]1: the viability, T/C was 53%.
As to `O=C(c1cc(Cc2n[nH]c(=O)c3ccccc23)ccc1F)N1CCN(C(=O)C2CC2)CC1` + Cc1[nH]c2ccc(F)cc2c1-c1nc2c3cccnc3c3ncccc3c2[nH]1, the viability, T/C was 58.2%.

The assay is the same for the next values; noted with them: second compound 10 µM; first compound 0.1 µM; hits give low values.
Turning to `CCCS(=O)(=O)Nc1ccc(F)c(C(=O)c2c[nH]c3ncc(-c4ccc(Cl)cc4)cc23)c1F` + CN(C)c1ccc(Nc2c3ccc(NC(=O)CCN4CCCC4)cc3nc3cc(NC(=O)CCN4CCCC4)ccc23)cc1, the viability, T/C is 70.6%.
In the case of `CC(C)n1c(=O)n(C)c2cnc3cc(F)c(-c4ccc(OCCCN5CCCCC5)nc4)cc3c21` + Cc1[nH]c2ccc(F)cc2c1-c1nc2c3cccnc3c3ncccc3c2[nH]1, the viability, T/C was 40.7%.
Still for that read-out and setting: with `O=C(c1cc(Cc2n[nH]c(=O)c3ccccc23)ccc1F)N1CCN(C(=O)C2CC2)CC1` + Cc1[nH]c2ccc(F)cc2c1-c1nc2c3cccnc3c3ncccc3c2[nH]1 the figure was 40.2%.

Staying with this assay, now noted: second compound 10 µM; first compound 0.316 µM; hits give low values.
Consider `CCCS(=O)(=O)Nc1ccc(F)c(C(=O)c2c[nH]c3ncc(-c4ccc(Cl)cc4)cc23)c1F` + CN(C)c1ccc(Nc2c3ccc(NC(=O)CCN4CCCC4)cc3nc3cc(NC(=O)CCN4CCCC4)ccc23)cc1, for which the viability, T/C is 75.6%.
The same measure, in the same setting: with `CC(C)n1c(=O)n(C)c2cnc3cc(F)c(-c4ccc(OCCCN5CCCCC5)nc4)cc3c21` + Cc1[nH]c2ccc(F)cc2c1-c1nc2c3cccnc3c3ncccc3c2[nH]1 the figure was 44.3%; with `O=C(c1cc(Cc2n[nH]c(=O)c3ccccc23)ccc1F)N1CCN(C(=O)C2CC2)CC1` + Cc1[nH]c2ccc(F)cc2c1-c1nc2c3cccnc3c3ncccc3c2[nH]1, 71.9%.

The assay is the same for the next values; noted with them: second compound 10 µM; first compound 1 µM; hits give low values.
Take `CCCS(=O)(=O)Nc1ccc(F)c(C(=O)c2c[nH]c3ncc(-c4ccc(Cl)cc4)cc23)c1F` + CN(C)c1ccc(Nc2c3ccc(NC(=O)CCN4CCCC4)cc3nc3cc(NC(=O)CCN4CCCC4)ccc23)cc1: the viability, T/C is 52.3%.
The same measure, in the same setting: with `CC(C)n1c(=O)n(C)c2cnc3cc(F)c(-c4ccc(OCCCN5CCCCC5)nc4)cc3c21` + Cc1[nH]c2ccc(F)cc2c1-c1nc2c3cccnc3c3ncccc3c2[nH]1 the figure was 29.6%; with `O=C(c1cc(Cc2n[nH]c(=O)c3ccccc23)ccc1F)N1CCN(C(=O)C2CC2)CC1` + Cc1[nH]c2ccc(F)cc2c1-c1nc2c3cccnc3c3ncccc3c2[nH]1, 57.9%.

Staying with this assay, now noted: second compound 10 µM; first compound 3.16 µM; hits give low values.
For the molecule `CCCS(=O)(=O)Nc1ccc(F)c(C(=O)c2c[nH]c3ncc(-c4ccc(Cl)cc4)cc23)c1F` + CN(C)c1ccc(Nc2c3ccc(NC(=O)CCN4CCCC4)cc3nc3cc(NC(=O)CCN4CCCC4)ccc23)cc1, the viability, T/C is 65%.
The same measure, in the same setting: the figure for `CC(C)n1c(=O)n(C)c2cnc3cc(F)c(-c4ccc(OCCCN5CCCCC5)nc4)cc3c21` + Cc1[nH]c2ccc(F)cc2c1-c1nc2c3cccnc3c3ncccc3c2[nH]1 is 23.9%; for `O=C(c1cc(Cc2n[nH]c(=O)c3ccccc23)ccc1F)N1CCN(C(=O)C2CC2)CC1` + Cc1[nH]c2ccc(F)cc2c1-c1nc2c3cccnc3c3ncccc3c2[nH]1 it is 38.4%.

Staying with this assay, now noted: second compound 10 µM; first compound 10 µM; hits give low values.
In the case of `CCCS(=O)(=O)Nc1ccc(F)c(C(=O)c2c[nH]c3ncc(-c4ccc(Cl)cc4)cc23)c1F` + CN(C)c1ccc(Nc2c3ccc(NC(=O)CCN4CCCC4)cc3nc3cc(NC(=O)CCN4CCCC4)ccc23)cc1, the viability, T/C is 14.2%.
Regarding `CC(C)n1c(=O)n(C)c2cnc3cc(F)c(-c4ccc(OCCCN5CCCCC5)nc4)cc3c21` + Cc1[nH]c2ccc(F)cc2c1-c1nc2c3cccnc3c3ncccc3c2[nH]1, the viability, T/C is 19%.
On to `O=C(c1cc(Cc2n[nH]c(=O)c3ccccc23)ccc1F)N1CCN(C(=O)C2CC2)CC1` + Cc1[nH]c2ccc(F)cc2c1-c1nc2c3cccnc3c3ncccc3c2[nH]1, for which the viability, T/C is 25.8%.

As usually defined, the viability, T/C is the ratio of treated to control.
